Assay results as given in patent publication US20040048369A1, “Control of inward-rectifier K+ ion channels” (priority 2002, published 2004).
Read-outs that look alike come from different tables or passages of the source.

Legend:
IRK1 channels [1] = target: T1, IRK1 channels (Mus musculus, UniProt P35561); assay: Block of IRK1 currents by intracellular chemicals, inside-out patches of Xenopus oocytes injected with IRK1 cRNA; type: cell-based; settings: for inward rectification with intracellular metal ion chelator: each at 5 mM, pH 7.6, phosphate buffer
T1 construct: expressed in transfected cells; host or cells: Xenopus laevis oocytes injected with IRK1 cRNA; inside-out patches
T1 sequence (P35561 1-428): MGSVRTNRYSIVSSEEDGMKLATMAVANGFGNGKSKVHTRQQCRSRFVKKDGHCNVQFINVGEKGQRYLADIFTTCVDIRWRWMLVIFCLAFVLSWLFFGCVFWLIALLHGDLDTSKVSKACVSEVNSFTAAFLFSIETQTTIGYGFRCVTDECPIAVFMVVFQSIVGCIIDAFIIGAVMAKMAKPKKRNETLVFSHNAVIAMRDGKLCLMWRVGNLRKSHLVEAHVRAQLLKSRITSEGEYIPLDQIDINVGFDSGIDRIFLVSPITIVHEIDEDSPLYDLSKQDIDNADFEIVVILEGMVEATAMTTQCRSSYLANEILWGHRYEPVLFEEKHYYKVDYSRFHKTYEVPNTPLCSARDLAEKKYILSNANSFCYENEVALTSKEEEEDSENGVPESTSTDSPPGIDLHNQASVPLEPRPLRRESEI
Experimental: IRK1 cDNA (Kubo et al., 1993) was cloned into the pGEM-Hess plasmid (IRK1-pGEMHess construct, provided by J. Yang). RNA was synthesized using T7 polymerase (Promega Corp., Madison, Wis.) from Nhe1-linearized cDNAs. Oocytes harvested from Xenopus laevis (Xenopus One, Ann Arbor, Mich.) were incubated in a solution containing NaCl, 82.5 mM; KCI, 2.5 mM; MgCl2, 1.0 mM; HEPES (pH 7.6), 5.0 mM and collagenase, 2-4 mg/ml. The oocyte preparation was agitated at 80 rpm for 60-90 minutes. It was then rinsed thoroughly and stored in a solution containing NaCl, 96 mM; KCl, 2.5 mM; CaCl2, 1.8 mM; MgCl2, 1.0 mM; HEPES (pH 7.6), 5 mM and gentamicin, 50 μg/ml. Defolliculated oocytes were selected and injected with RNA at least 2 and 16 hours, respectively, after collagenase treatment. All oocytes were stored at 18° C.
(§1) IRK1 currents were recorded from inside-out membrane patches of Xenopus oocytes (injected with IRK1cRNA) with an Axopatch 200B amplifier (Axon Instruments, Inc., Foster City, Calif.), filtered at 5 kHz, and sampled at 25 kHz using an analog-to-digital converter (DigiData 1200, Axon Instruments) interfaced with a personal computer. pClamp6 software (Axon Instruments) was used to control the amplifier and acquire the data. During current recording, the voltage across the membrane patch was first hyperpolarized from the 0 mV holding potential to −100 mV, and then stepped to various test voltages, or stepped directly from the holding potential. […] Background leak current correction was carried out as previously described (Lu and MacKinnon, Nature 371:243-246 (1994); Guo and Lu, 2000a). To effectively perfuse the patch, the tip of the patch pipette (3 MΣ) was immersed in a stream of intracellular solution exiting one of ten glass capillaries (ID=0.2 mm) mounted in parallel.
All recording solutions contained 100 mM K^+ contributed by KCl, K2EDTA, K2HPO4, KH2PO4, and KOH. The phosphate-buffered intracellular solution contained 5 mM K2EDTA (unless specified otherwise), and 10 mM “K2HPO4+KH2PO4” in a ratio yielding the desired pH, and sufficient KCl to bring total K^+ concentration to 100 mM (Guo and Lu, 2000a). The HEPES-buffered intracellular solution, as used in FIG. 3, contained (100 mM K^+ (Cl^−+OH^−), 5 mM EDTA and 10 mM HEPES, pH 7.2 (adjusted with KOH). The HEPES-buffered extracellular solution contained 100 mM K^+ (Cl^−+OH^−), 0.3 mM CaCl2, 1.0 mM MgCl2, and 10 mM HEPES, pH 7.6 (adjusted with KOH). In the phosphate-buffered extracellular solution, HEPES was replaced by an equal concentration of “K2HPO4+KH2PO4” in a ratio yielding pH 7.6. The divalent cation-free extracellular solution contained 5 mM EDTA. All chemicals were purchased from Fluka Chemical Corp.
In all cases the intracellular solutions contained 100 mM K^+, 5 mM EDTA and 10 mM phosphate (pH 7.6) in addition to the tested chemicals, while the extracellular solution contained 100 mM K^+, 0.3 mM Ca^2+, 1 mM Mg^2+, 10 mM phosphate (pH 7.6). The currents were corrected for background current.

IRK1 channels [2] = target: T1, IRK1 channels; settings: 2000b, cited from earlier work
IRK1 channels [3] = target: T1, IRK1 channels; assay: Relaxation/block of inward IRK1 currents by extracellular chemicals, inside-out patches; type: cell-based; settings: 10 mM HEPES, 3 μM HEP or 0.3 μM piperazine
Experimental: as §1
The phosphate-buffered intracellular solution contained 5 mM K2EDTA (unless specified otherwise), and 10 mM “K2HPO4+KH2PO4” in a ratio yielding the desired pH, and sufficient KCl to bring total K^+ concentration to 100 mM (Guo and Lu, 2000a). The HEPES-buffered intracellular solution, as used in FIG. 3, contained (100 mM K^+ (Cl^−+OH^−), 5 mM EDTA and 10 mM HEPES, pH 7.2 (adjusted with KOH). The HEPES-buffered extracellular solution contained 100 mM K^+ (Cl^−+OH^−), 0.3 mM CaCl2, 1.0 mM MgCl2, and 10 mM HEPES, pH 7.6 (adjusted with KOH). In the phosphate-buffered extracellular solution, HEPES was replaced by an equal concentration of “K2HPO4+KH2PO4” in a ratio yielding pH 7.6. The divalent cation-free extracellular solution contained 5 mM EDTA. All chemicals were purchased from Fluka Chemical Corp.
Since solutions in the quoted study were HEPES buffered, currents elicited with the voltage protocol used to produce the data in FIG. 12 were evaluated with no added divalent cations in the extracellular solution to determine whether the current relaxation was due to the use of extracellular HEPES.
The channel block associated with extracellular HEPES was examined to determine whether it could also be caused by residual contaminants. Intra- and extracellular solutions were buffered with 10 mM phosphate. […] The ratio of currents at the end and the beginning of voltage pulses (Iend/Ibgn) was plotted against membrane voltage.

Kir2.1 = Kir2.1 (Homo sapiens, UniProt P63252); settings: 100 μM; cited from earlier work
Kir1.1 = Kir1.1 (Homo sapiens, UniProt P48048); settings: 100 μM; cited from earlier work
Shaker channel = Shaker channel (Drosophila melanogaster, UniProt P08510); settings: 100 μM; cited from earlier work
[4] = tested on: Kir2.1 (E224 and E299 replaced with neutral ones); settings: 100 μM; cited from earlier work
[5] = Goodman & Gilman's; cited from earlier work
[6] = intracellular blocker, Kd at 0 mV, mean±sem, read-out: Kd (0 mV), fit of the Woodhull equation

Shaker channel, sequence (P08510 whole entry): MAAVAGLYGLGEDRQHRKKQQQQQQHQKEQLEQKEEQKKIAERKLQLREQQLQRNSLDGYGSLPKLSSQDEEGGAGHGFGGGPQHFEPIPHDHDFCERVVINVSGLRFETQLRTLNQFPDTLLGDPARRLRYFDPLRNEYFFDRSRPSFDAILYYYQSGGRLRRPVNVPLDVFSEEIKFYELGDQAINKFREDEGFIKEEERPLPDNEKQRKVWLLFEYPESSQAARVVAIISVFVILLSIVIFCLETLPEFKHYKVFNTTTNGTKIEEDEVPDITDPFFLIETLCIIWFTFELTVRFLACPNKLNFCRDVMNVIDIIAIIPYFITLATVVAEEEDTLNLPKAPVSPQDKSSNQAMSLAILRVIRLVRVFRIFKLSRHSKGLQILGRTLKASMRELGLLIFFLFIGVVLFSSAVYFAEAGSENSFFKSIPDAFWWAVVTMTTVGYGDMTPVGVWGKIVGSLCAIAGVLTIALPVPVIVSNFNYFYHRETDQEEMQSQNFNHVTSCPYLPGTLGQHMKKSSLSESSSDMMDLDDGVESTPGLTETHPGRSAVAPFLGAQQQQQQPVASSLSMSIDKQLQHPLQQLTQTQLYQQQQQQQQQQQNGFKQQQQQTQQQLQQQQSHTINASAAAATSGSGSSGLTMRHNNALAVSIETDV
Kir2.1, sequence (P63252 whole entry): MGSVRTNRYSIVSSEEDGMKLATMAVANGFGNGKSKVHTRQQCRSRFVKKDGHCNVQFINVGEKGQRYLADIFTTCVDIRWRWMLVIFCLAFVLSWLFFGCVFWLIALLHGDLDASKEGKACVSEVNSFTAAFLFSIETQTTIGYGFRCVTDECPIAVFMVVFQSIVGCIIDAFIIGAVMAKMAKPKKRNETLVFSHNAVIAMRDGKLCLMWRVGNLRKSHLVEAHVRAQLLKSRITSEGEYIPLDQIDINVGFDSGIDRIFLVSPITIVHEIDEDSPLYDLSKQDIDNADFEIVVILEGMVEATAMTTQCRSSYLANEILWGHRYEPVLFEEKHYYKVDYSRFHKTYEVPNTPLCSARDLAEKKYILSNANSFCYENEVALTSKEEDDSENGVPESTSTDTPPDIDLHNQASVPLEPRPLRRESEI
Kir1.1, sequence (P48048 whole entry): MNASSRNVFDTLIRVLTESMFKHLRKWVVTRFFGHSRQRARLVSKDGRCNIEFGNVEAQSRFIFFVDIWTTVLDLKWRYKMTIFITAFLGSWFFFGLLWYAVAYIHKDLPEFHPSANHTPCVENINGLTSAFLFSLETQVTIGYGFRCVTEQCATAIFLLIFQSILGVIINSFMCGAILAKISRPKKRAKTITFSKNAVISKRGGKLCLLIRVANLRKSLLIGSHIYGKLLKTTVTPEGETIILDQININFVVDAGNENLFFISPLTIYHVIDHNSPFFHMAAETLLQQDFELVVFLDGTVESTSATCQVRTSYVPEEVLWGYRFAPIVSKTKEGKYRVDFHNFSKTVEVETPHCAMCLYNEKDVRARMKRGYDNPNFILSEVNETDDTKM

Compound: O=C(O)CN(CCN(CC(=O)O)CC(=O)O)CC(=O)O [EDTA, ethylene diamine tetraacetic acid]
- inward rectification with intracellular metal ion chelator (IRK1 channels [1]): least rectification

Compound: NCCN [ethylenediamine]
- potency of channel block relative to EDTA (IRK1 channels [1]; 0.1 μM ethylenediamine versus 30 mM EDTA, intracellular): > 10,000 fold
- Z (valence) (IRK1 channels [2]; Guo and Lu): 2
- Kd (IRK1 channels [2]; Guo and Lu, read-out: Kd (0 mV)): 1400 µM

Compound: O=C(O)CN(CCOCCOCCN(CC(=O)O)CC(=O)O)CC(=O)O [EGTA, ethylene glycol bis(β-aminoethyl ether) N,N,N′,N′-tetraacetic acid]
- inward rectification with intracellular metal ion chelator (IRK1 channels [1]): more pronounced

Compound: NCCCNCCCCNCCCN [spermine]
- effective valence of channel block (IRK1 channels [2]; Guo and Lu 2000a): ~5
- Kd (IRK1 channels [2]; Guo and Lu 2000a, read-out: Kd (0 mV) for binding of fully protonated spermine): ~0.1 µM

Compound: C1CNCCN1 [piperazine]
- Z (valence), fit of the Woodhull equation (IRK1 channels [1]; intracellular blocker): 1.08±0.02
- Kd (IRK1 channels [1]; [6]): 270 ± 40 µM
- inward current relaxation / channel block by extracellular chemical (IRK1 channels [3]; 20 mM extracellular K+): blocked the channels
- inhibition of Kir2.1 (Kir2.1): dramatically inhibits
- effect on Kir1.1 (Kir1.1): no effects
- effect on Shaker channel (Shaker channel): no effects
- sensitivity of mutant Kir2.1 [4]: practically insensitive
- adverse effects attending use [5]: Occasional gastrointestinal upset, transient neurological effects, and urticarial reaction
- laboratory studies on patients receiving treatment for several days [5]: no abnormality
- use during pregnancy [5]: without ill effect

Compound: O=S(=O)(O)CCN1CCN(CCO)CC1 [HEPES, 4-(2 hydroxyethyl)-1-piperazineethanesulfonic acid]
- Z (valence), fit of the Woodhull equation (IRK1 channels [1]; intracellular blocker): 1.02±0.02
- inward current relaxation / channel block by extracellular chemical (IRK1 channels [3]; 20 mM extracellular K+): prominent inward current relaxation
- inward current relaxation / channel block by extracellular chemical (IRK1 channels [3]; 100 mM extracellular K+): little or no relaxation

Compound: [Mg+2] [Mg^2+]
- Kd (IRK1 channels [1]; intracellular Mg2+, FIG. 7B, read-out: Kd (0 mV), fit of the Woodhull equation to the Mg2+-inhibition curve): 17 µM
- Z (valence), fit of the Woodhull equation (IRK1 channels [1]; intracellular blocker): 1.1

Compound: O=C(O)CN(CC(=O)O)C1CCCCC1N(CC(=O)O)CC(=O)O (stereo not drawn) [CDTA, cyclohexane 1,2-diaminetetraacetic acid]
- inward rectification with intracellular metal ion chelator (IRK1 channels [1]): more pronounced

Compound: OCCN1CCNCC1 [HEP, hydroxyethyl piperazine]
- relative potency of channel block (qualitative) (IRK1 channels [1]; 10 mM HEPES, 3 μM HEP, 0.3 μM piperazine, intracellular): much more potent
- Z (valence), fit of the Woodhull equation (IRK1 channels [1]; intracellular blocker): 1.09±0.03
- Kd (IRK1 channels [1]; [6]): 2970 ± 160 µM
- inward current relaxation / channel block by extracellular chemical (IRK1 channels [3]; 20 mM extracellular K+): blocked the channels
